What was measured:
Experiment in all cases: combination Emax (second highest fraction inhibited in the dose matrix, 72 h); higher = more inhibition; extreme values may be limits of the assay
[1] = system: A4-Fuk (B-Lymphoblastic Leukemia)
In short: (§1)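 Cell lines grown in DMEM/F12 or RPMI with 10% FBS were plated in 1536-well plates and held 24 hours at 37°C, 5% CO2 before 72 hours of exposure to two-drug dose matrices, with DMSO typically at 0.2%. CellTiter-Glo 2.0 luminescence gave viability, which was converted to inhibition. Vehicle wells were set to 0 and blank wells to 1. Combination Emax is the second-highest inhibition in the matrix, and Bliss excess is the observed combination effect minus the expected EA + EB − EA·EB, where EA and EB are the single-agent effects.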

[2] = system: ALL-SIL (T-Lymphoblastic Leukemia)
In short: as §1

[3] = system: COLO-679 (Melanoma)
In short: as §1

[4] = system: EJM (Plasma Cell Myeloma)
In short: as §1

[5] = system: HCC2998 (Colorectal Carcinoma)
In short: as §1

[6] = system: KMRC-1 (Kidney Carcinoma)
In short: as §1

[7] = system: KOPN-8 (B-Lymphoblastic Leukemia)
In short: as §1

[8] = system: LC-1-sq (Squamous Cell Lung Carcinoma)
In short: as §1

[9] = system: MDA-MB-453 (Breast Carcinoma)
In short: as §1

[10] = system: ML-2 (Acute Myeloid Leukemia)
In short: as §1

[11] = system: MOLT-4 (T-Lymphoblastic Leukemia)
In short: as §1

[12] = system: NCI-H1092 (Small Cell Lung Carcinoma)
In short: as §1

[13] = system: NCI-H1355 (Lung Adenocarcinoma)
In short: as §1

[14] = system: NCI-H1838 (Lung Adenocarcinoma)
In short: as §1

[15] = system: NCI-H1993 (Lung Adenocarcinoma)
In short: as §1

[16] = system: SK-N-AS (Neuroblastoma)
In short: as §1

[17] = system: SKN (Other Solid Carcinomas)
In short: as §1

[18] = system: SNU-387 (Hepatocellular Carcinoma)
In short: as §1

[19] = system: SW872 (Other Solid Carcinomas)
In short: as §1

[20] = system: SW982 (Other Solid Carcinomas)
In short: as §1

| SMILES | combination Emax [1] | combination Emax [2] | combination Emax [3] | combination Emax [4] | combination Emax [5] | combination Emax [6] | combination Emax [7] | combination Emax [8] | combination Emax [9] | combination Emax [10] | combination Emax [11] | combination Emax [12] | combination Emax [13] | combination Emax [14] | combination Emax [15] | combination Emax [16] | combination Emax [17] | combination Emax [18] | combination Emax [19] | combination Emax [20] |
| --- | --- | --- | --- | --- | --- | --- | --- | --- | --- | --- | --- | --- | --- | --- | --- | --- | --- | --- | --- | --- |
| NC1(C(=O)N[C@@H](CCO)c2ccc(Cl)cc2)CCN(c2ncnc3[nH]ccc23)CC1 [Capivasertib] + CCN(CCO)CCCOc1ccc2c(Nc3cc(CC(=O)Nc4cccc(F)c4)[nH]n3)ncnc2c1 [AZD2811] (first compound max 10 µM, 7x7, partner max 1 µM) | 0.878 | 0.941 | 0.31 | 0.43 | 0.5 | 0.494 | 0.86 | 0.322 | 0.599 | 1 | 0.997 | 0.353 | 0.425 | 0.386 | 0.605 | 0.329 | 0.555 | 0.312 | 0.336 | 0.672 |
| CC(=O)Nc1cccc(-n2c(=O)n(C3CC3)c(=O)c3c(Nc4ccc(I)cc4F)n(C)c(=O)c(C)c32)c1 [Trametinib] + Cc1nc(-c2cn3c(n2)-c2ccc(-c4cnn(C(C)(C)C(N)=O)c4)cc2OCC3)n(C(C)C)n1 [Taselisib] (first compound max 1 µM, 7x7, partner max 10 µM) | 1 | 0.831 | 0.856 | 0.488 | 0.928 | 0.748 | 0.635 | 0.722 | 0.798 | 0.968 | 0.859 | 0.161 | 0.69 | 0.476 | 0.898 | 0.73 | 0.676 | 1 | 0.588 | 0.83 |
| CC1(C)CCC(CN2CCN(c3ccc(C(=O)NS(=O)(=O)c4ccc(NCC5CCOCC5)c([N+](=O)[O-])c4)c(Oc4cnc5[nH]ccc5c4)c3)CC2)=C(c2ccc(Cl)cc2)C1 [Venetoclax] + CN(C)CCCOc1ccc(-c2ccc3ncc4c(c3c2)n(C2CCOCC2)c(=O)n4C)cn1 [AZD0156] (first compound max 1 µM, 7x7, partner max 1 µM) | 0.659 | 0.628 | 0.107 | 0.159 | 0.105 | 0.0988 | 0.813 | 0.192 | 0.169 | 0.822 | 0.741 | 0.252 | 0.296 | 0.303 | 0.413 | 0.17 | 0.235 | 0.201 | 0.172 | 0.2 |
| Cc1c2c(nn1C)CSCc1cc(n(C)n1)CSc1cc(c3ccccc3c1)OCCCc1c(C(=O)O)n(C)c3c-2c(Cl)ccc13 [AZD5991] + C=CCn1c(=O)c2cnc(Nc3ccc(N4CCN(C)CC4)cc3)nc2n1-c1cccc(C(C)(C)O)n1 [AZD1775] (first compound max 1 µM, partner max 1 µM) | 1 | 1 | 0.529 | 1 | 0.962 | 0.275 | 0.998 | 0.851 | 0.4 | 1 | 1 | 0.696 | 0.57 | 0.835 | 0.629 | 0.964 | 0.436 | 0.581 | 0.374 | 0.798 |
| CCc1c2c(nc3ccc(O)cc13)-c1cc3c(c(=O)n1C2)COC(=O)[C@]3(O)CC [SN-38] + CN(C)CCCOc1ccc(-c2ccc3ncc4c(c3c2)n(C2CCOCC2)c(=O)n4C)cn1 [AZD0156] (first compound max 0.3 µM, 7x7, partner max 1 µM) | 0.923 | 0.995 | 0.659 | 0.903 | 0.867 | 0.419 | 0.957 | 0.442 | 0.772 | 1 | 1 | 0.323 | 0.361 | 0.607 | 0.696 | 0.737 | 0.412 | 0.229 | 0.98 | 0.803 |
| CCN(CCO)CCCOc1ccc2c(Nc3cc(CC(=O)Nc4cccc(F)c4)[nH]n3)ncnc2c1 [AZD2811] + C=CCn1c(=O)c2cnc(Nc3ccc(N4CCN(C)CC4)cc3)nc2n1-c1cccc(C(C)(C)O)n1 [AZD1775] (first compound max 1 µM, partner max 1 µM) | 0.852 | 0.966 | 0.491 | 0.875 | 0.599 | 0.184 | 0.882 | 0.864 | 0.301 | 1 | 1 | 0.259 | 0.568 | 0.483 | 0.458 | 0.728 | 0.236 | 0.575 | 0.289 | 0.742 |
